Reference: patent US20230398153A1, “A METHOD FOR EFFICIENT MICROGLIA REPLACEMENT” (The Board of Trustees of the Leland Stanford Junior …, priority 2020, published 2023)

Test system: PB leukocytes and brain myeloid cells
Test: Conventional HSCT after busulfan conditioning: GFP chimerism in peripheral blood and brain
Format: in vivo, mouse
Settings: busulfan 5 days, IV GFP bone marrow
Description: FIG. 1. Microglia replacement after bone marrow transplantation is a slow, inefficient and variable process. (A) Schematic overview of bone marrow transplantation (HSCT). Recipient mice were received intraperitoneal (IP) injection of busulfan for 5 days at 25 mg/kg/day (i.e. 125 mg/kg total dose) and then transplanted with GFP-expressing bone marrow cells via intravenous (IV) injection. Donor chimerism in peripheral blood (PB) and brain myeloid cells was analyzed at the indicated time points. (B and C) Donor chimerism in PB leukocytes (CD45+ cells) and brain myeloid cells (CD45+CD11b+ cells) was analyzed by flow cytometry at the indicated time point. […] GFP chimerism in PB leukocytes (B) (Mean±SEM, n=5-20/time point, ***p<0.001, ns: not significant, ANOVA). […] (F) Quantification of transplanted GFP+bone marrow cells in coronal brain sections. […] Horizontal bars represent mean values (n=3/group, 3 brain slices/animal were quantified. **p<0.01, ***p<0.001, Student's t-test). […] (H) Microglia chimerism was analyzed by flow cytometry 14 days post IV injection. […]
The reported efficiencies of microglia replacement following HSCT in mice vary greatly in the literature. […] Brain chimerism was determined by sacrificing the mice, dissociating one hemisphere for flow cytometry analysis and fixing the other hemisphere for immunofluorescence analysis (FIG. 8A-C). […]

For `CS(=O)(=O)OCCCCOS(C)(=O)=O` [busulfan], which “GFP+ cells in peripheral blood” value (2 weeks after transplantation, average) is on record?
The value was “about 40%”.

What about the “degree of GFP chimerism among brain myeloid cells, range between mice” value (conventional HSCT without PLX5622) of the same compound?
Its value is 7.09-73.4%.
